Assay results: ChEMBL document CHEMBL1152979, “Inhibition of the insulin-like growth factor-1 receptor (IGF1R) tyrosine kinase as a novel cancer therapy approach” (J Med Chem, 2009)
Values belong to the compound of their own block, whether it stands above or below them.

Experiments:
[1] = molecular target: T1, Insulin-like growth factor 1 receptor (Homo sapiens, UniProt P08069)
[2] = Cytotoxicity against human RD1 cells; assay type: functional, cell-based
[3] = Cytotoxicity against human MDA PCa 2b cells; assay type: functional, cell-based
COLO 205 = assay: Cytotoxicity against human COLO205 cells; assay type: functional, cell-based
MCF7 = assay: Cytotoxicity against human MCF7 cells; assay type: functional, cell-based
Focal adhesion kinase 1 = Focal adhesion kinase 1 (Homo sapiens, UniProt Q05397)
[4] = molecular target: Tyrosine-protein kinase Lck (Homo sapiens, UniProt P06239)
Insulin receptor [5] = molecular target: T2, Insulin receptor (Homo sapiens, UniProt P06213); assay: Inhibition of IRK
[6] = molecular target: T1, Insulin-like growth factor 1 receptor; assay: Displacement of fluorescent ATP competitive ligand from IGF1R
[7] = molecular target: T1, Insulin-like growth factor 1 receptor; remark: listed apart in the source
Description: Inhibition of IGF1R by cell based assay

[8] = Selectivity for EGFR over HER2
[9] = molecular target: Epidermal growth factor receptor (Homo sapiens, UniProt P00533); assay: Inhibition of HER1
Bcr/Abl fusion protein = Bcr/Abl fusion protein (Homo sapiens, UniProt P00519); assay: Inhibition of BCR-ABL p210; assay type: protein assay
[10] = molecular target: Mast/stem cell growth factor receptor Kit (Homo sapiens, UniProt P10721)
[11] = Selectivity for HER2 over EGFR
[12] = molecular target: T1, Insulin-like growth factor 1 receptor; assay: Inhibition of IGF1R autophosphorylation in human MCF7 cells by Western blot analysis; assay type: cell-based
[13] = Selectivity for insulin receptor over IGF1R
[14] = molecular target: T1, Insulin-like growth factor 1 receptor; assay: Inhibition of GST-tagged human IGF1R expressed in baculovirus-infected Sf21 cells by scintillation proximity assay
[15] = molecular target: T1, Insulin-like growth factor 1 receptor; assay: Inhibition of IGF1R in IGF1-stimulated human MCF7 cells by Western blot analysis; assay type: cell-based
[16] = molecular target: T1, Insulin-like growth factor 1 receptor; assay: Inhibition of IGF1R in human MCF7 cells by Western blot analysis; assay type: cell-based
[17] = molecular target: T1, Insulin-like growth factor 1 receptor; assay: Inhibition for IGF1R-induced S6 ribosomal protein phosphorylation in growth factor-stimulated NHDF
[18] = molecular target: T1, Insulin-like growth factor 1 receptor; assay: Inhibition of IGF1R in growth factor-stimulated NHDF
[19] = molecular target: Receptor tyrosine-protein kinase erbB-2 (Homo sapiens, UniProt P04626); assay: Inhibition of HER2
[20] = Inhibition of PDGFR
[21] = molecular target: Vascular endothelial growth factor receptor 2 (Homo sapiens, UniProt P35968); assay: Inhibition of VEGFR2
[22] = molecular target: T1, Insulin-like growth factor 1 receptor; remark: listed apart in the source
Description: Inhibition of IGF1R by cell based assay

Insulin receptor [23] = molecular target: T2, Insulin receptor
Description: Inhibition of insulin receptor by cell based assay

T2 sequence (P06213 28-758 limits assumed): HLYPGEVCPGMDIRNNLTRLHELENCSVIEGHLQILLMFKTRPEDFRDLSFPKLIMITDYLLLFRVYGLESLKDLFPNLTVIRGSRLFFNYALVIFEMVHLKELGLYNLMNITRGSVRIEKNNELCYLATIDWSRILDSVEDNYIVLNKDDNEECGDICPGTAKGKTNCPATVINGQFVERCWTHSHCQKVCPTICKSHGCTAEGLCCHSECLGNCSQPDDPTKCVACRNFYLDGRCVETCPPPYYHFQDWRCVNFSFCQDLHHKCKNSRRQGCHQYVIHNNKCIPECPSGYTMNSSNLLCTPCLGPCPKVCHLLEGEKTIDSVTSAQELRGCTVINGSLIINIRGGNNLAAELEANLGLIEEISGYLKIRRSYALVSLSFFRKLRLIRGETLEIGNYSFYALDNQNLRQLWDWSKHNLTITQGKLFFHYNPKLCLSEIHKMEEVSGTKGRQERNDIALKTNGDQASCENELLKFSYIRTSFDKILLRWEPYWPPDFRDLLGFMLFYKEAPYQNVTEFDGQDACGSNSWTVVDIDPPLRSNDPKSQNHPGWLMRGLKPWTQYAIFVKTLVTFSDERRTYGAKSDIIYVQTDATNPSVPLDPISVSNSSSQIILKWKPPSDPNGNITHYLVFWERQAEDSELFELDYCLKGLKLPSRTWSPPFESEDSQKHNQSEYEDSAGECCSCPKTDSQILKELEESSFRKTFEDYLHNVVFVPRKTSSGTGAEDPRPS
T2 sequence (P06213 763-1382 limits assumed): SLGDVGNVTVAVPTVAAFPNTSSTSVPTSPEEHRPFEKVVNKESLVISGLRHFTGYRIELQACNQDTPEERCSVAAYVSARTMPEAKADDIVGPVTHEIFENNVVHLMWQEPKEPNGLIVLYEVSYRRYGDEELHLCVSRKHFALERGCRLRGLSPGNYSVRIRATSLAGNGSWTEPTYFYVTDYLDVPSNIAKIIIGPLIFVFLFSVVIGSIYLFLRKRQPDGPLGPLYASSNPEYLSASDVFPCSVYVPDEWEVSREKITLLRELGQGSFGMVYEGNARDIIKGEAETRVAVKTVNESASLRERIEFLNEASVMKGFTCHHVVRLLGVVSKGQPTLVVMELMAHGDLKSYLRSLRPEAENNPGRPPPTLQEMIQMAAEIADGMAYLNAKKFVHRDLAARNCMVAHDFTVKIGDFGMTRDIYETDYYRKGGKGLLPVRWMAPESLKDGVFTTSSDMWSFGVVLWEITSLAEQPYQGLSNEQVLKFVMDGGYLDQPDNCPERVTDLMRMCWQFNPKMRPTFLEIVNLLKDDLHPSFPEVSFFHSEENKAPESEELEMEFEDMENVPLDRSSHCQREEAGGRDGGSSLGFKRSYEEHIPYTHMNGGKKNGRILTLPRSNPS
T1 sequence (P08069 31-736 limits assumed): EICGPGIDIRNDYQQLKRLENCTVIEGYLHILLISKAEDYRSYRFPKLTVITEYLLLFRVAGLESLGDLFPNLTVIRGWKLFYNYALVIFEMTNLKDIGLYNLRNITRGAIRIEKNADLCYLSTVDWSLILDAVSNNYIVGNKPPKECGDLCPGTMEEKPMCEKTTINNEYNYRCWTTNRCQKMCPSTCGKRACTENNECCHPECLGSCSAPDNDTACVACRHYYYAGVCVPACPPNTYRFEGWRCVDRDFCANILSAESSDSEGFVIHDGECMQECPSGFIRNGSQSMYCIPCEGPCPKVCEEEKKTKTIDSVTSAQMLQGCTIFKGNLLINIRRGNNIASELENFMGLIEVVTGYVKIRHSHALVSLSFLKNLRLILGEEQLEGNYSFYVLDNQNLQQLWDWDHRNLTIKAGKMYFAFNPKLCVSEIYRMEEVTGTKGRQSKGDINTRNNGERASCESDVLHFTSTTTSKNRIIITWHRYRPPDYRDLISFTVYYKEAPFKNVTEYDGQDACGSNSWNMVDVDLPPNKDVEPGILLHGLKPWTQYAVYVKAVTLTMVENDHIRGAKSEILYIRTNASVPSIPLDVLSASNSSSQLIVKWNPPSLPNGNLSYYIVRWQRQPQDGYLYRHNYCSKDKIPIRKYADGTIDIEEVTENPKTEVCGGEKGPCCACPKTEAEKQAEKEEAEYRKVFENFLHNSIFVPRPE
T1 sequence (P08069 741-1367 limits assumed): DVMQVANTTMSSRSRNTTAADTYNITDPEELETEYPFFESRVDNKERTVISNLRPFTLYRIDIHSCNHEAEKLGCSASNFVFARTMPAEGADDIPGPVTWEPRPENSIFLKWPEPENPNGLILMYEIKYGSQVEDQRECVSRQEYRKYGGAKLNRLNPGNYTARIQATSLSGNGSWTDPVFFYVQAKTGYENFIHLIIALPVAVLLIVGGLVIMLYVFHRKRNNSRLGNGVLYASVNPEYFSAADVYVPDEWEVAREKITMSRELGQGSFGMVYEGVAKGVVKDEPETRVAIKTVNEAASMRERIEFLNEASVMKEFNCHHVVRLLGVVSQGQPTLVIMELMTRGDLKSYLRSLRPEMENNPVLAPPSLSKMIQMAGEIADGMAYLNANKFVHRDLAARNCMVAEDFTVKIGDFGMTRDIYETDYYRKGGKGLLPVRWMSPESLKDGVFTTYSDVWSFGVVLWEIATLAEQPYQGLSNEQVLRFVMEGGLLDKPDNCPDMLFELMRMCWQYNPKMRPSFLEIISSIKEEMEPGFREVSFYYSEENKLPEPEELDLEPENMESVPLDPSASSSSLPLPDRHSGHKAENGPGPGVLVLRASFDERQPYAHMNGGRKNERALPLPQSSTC
Bcr/Abl fusion protein, sequence (P00519 whole entry, the tested form may be a part): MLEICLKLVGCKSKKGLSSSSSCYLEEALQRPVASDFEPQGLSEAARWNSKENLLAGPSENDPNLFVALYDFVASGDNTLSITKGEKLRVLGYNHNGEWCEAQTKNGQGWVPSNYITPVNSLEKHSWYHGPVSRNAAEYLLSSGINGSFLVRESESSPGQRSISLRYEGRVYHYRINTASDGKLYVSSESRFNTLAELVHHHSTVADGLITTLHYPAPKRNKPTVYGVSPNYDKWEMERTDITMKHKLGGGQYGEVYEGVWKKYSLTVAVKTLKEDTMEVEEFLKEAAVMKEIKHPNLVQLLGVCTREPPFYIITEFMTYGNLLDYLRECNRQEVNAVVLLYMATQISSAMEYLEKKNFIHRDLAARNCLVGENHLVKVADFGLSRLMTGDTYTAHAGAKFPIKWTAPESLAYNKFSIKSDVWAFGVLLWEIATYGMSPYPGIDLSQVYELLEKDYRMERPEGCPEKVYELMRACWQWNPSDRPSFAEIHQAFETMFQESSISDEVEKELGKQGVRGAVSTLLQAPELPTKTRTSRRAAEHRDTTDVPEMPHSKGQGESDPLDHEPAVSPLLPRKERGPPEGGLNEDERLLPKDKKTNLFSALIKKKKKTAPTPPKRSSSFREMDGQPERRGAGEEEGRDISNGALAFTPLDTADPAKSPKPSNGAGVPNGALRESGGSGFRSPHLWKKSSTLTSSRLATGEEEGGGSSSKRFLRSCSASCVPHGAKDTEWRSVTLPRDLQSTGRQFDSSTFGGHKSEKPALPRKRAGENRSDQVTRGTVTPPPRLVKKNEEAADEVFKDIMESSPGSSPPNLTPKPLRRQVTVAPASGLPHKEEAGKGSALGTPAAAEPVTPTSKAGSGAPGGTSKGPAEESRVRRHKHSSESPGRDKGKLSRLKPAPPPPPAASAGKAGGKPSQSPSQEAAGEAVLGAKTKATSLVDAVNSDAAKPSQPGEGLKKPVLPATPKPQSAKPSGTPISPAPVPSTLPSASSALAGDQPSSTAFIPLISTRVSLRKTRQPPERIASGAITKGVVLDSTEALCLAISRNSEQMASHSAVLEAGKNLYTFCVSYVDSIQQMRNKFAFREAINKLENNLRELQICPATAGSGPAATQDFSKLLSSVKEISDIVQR
Bcr/Abl fusion protein, sequence (P11274 whole entry, further chain, the tested form may be a part): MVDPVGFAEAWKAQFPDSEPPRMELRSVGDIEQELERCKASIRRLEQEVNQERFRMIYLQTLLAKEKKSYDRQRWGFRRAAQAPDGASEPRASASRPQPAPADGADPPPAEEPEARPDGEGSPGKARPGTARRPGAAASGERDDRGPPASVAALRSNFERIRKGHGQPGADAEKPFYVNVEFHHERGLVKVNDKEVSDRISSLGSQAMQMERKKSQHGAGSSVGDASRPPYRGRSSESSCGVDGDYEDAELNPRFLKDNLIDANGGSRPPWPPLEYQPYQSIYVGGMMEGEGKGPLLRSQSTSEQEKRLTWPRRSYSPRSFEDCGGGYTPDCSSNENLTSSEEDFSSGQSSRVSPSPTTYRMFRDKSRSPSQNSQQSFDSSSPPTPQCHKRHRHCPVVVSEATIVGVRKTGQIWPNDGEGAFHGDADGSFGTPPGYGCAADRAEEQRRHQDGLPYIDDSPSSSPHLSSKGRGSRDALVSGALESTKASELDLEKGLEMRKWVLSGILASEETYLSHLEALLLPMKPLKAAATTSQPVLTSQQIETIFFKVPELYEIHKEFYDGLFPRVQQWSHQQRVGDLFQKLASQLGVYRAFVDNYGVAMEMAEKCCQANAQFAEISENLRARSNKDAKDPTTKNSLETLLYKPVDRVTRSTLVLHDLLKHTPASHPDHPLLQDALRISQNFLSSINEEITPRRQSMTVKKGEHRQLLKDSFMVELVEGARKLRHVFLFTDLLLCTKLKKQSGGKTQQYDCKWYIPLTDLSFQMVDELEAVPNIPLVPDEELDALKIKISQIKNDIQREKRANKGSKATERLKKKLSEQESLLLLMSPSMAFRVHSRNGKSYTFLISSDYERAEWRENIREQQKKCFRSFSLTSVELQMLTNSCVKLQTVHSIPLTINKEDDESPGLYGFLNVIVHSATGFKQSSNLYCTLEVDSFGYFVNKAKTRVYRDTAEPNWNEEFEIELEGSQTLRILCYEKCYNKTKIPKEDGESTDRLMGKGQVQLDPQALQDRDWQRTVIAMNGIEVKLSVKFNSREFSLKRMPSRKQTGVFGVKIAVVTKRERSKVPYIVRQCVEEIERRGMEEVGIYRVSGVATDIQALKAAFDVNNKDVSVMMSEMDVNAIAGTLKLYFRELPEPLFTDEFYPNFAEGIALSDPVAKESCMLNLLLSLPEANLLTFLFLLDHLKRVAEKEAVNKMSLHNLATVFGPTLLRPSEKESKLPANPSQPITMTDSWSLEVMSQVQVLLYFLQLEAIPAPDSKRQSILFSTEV

Activity (Insulin receptor [5]): 12 µM | Activity [6]: 2.7 µM | Activity [7]: 15 µM
SMILES: CCOC(=O)c1[nH]c(C=O)c(C(=O)OCC)c1C

Selectivity ratio [8]: 100
SMILES: N#C/C(=C\c1ccc(O)c(O)c1)C(=O)NCc1ccccc1

IC50 [9]: > 10000 nM | IC50 (Bcr/Abl fusion protein): > 10000 nM | IC50 [10]: > 5000 nM
SMILES: Nc1ncnc2c1c(-c1cccc(OCc3ccccc3)c1)cn2[C@H]1C[C@@H](CN2CCC2)C1 [AEW-541]

IC50 [12]: < 1000 nM
SMILES: COc1ccc(Cl)cc1NC(=O)Nc1cc(C)nc2ccccc12

IC50 [14]: 90 nM | IC50 [15]: 300 nM
SMILES: CN1CCN(c2ccc(C(=O)Nc3n[nH]c4c3CN(S(=O)(=O)c3cc(F)cc(F)c3)C4(C)C)cc2NC(=O)c2cc[nH]c2)CC1

IC50 [17]: 3050 nM | IC50 [18]: 340 nM
SMILES: CN1CCN(c2ccc(C(=O)Nc3n[nH]c4c3CN(S(=O)(=O)c3cc(F)cc(F)c3)CC4)cc2)CC1

The remaining lines, values behind:

SMILES: N#C/C(=C\c1ccc(O)c(O)c1)C(=O)c1ccc(O)c(O)c1
IC50 [1]: 61 nM

SMILES: Cc1cc(N2CCN(CCC#N)CC2)cc2nc(-c3c(NC[C@@H](O)c4ccccc4Cl)cc[nH]c3=O)[nH]c12
IC50 [2]: 146 nM | IC50 [3]: 188 nM | IC50 (COLO 205): 120 nM | IC50 (MCF7): 234 nM | IC50 (Focal adhesion kinase 1): 94 nM | IC50 [4]: > 1500 nM

SMILES: CCOC(=O)c1c(C=O)[nH]c(C(=O)OC(C)(C)C)c1CC
Activity (Insulin receptor [5]): 2 µM | Activity [6]: 0.49 µM | Activity [7]: 5.3 µM

SMILES: CC(C)(C)c1cc(/C=C(\C#N)C(N)=S)cc(C(C)(C)C)c1O
Selectivity ratio [11]: 1000

SMILES: O=C(O[C@@H]1Cc2ccccc2O[C@@H]1c1cc(O)c(O)c(O)c1)c1cc(O)c(O)c(O)c1
IC50 [1]: 14000 nM

SMILES: Cc1cc(N2CCOCC2)cc2[nH]c(-c3c(NC[C@@H](O)c4cccc(Cl)c4)cc[nH]c3=O)nc12
IC50 [2]: 202 nM | IC50 [3]: 194 nM

SMILES: Cc1cc(N2CCOCC2)cc2[nH]c(-c3c(NC[C@H](O)c4ccccc4Cl)cc[nH]c3=O)nc12
IC50 [1]: 830 nM

SMILES: Nc1nccn2cnc(-c3ccc4ccc(-c5ccccc5)nc4c3C3CC(N4CC4)C3)c12 (configuration not stated)
Selectivity ratio [13]: 5 | IC50 [1]: 20 nM

SMILES: CN1CCN(c2ccc(C(=O)Nc3n[nH]c4c3CN(S(=O)(=O)c3cc(F)cc(F)c3)CC4)c(NC(=O)c3ccc[nH]3)c2)CC1
IC50 [16]: 80 nM

SMILES: Nc1ncnc2c1c(-c1cccc(OCc3ccccc3)c1)cn2[C@H]1C[C@H](N2CCCC2)C1
IC50 [19]: > 10000 nM | IC50 [20]: > 10000 nM | IC50 [21]: > 10000 nM | IC50 (Bcr/Abl fusion protein): > 10000 nM | IC50 [22]: 170 nM | IC50 (Insulin receptor [23]): 2800 nM | IC50 [10]: > 5000 nM
